From ChEMBL document CHEMBL1141760, “Polyhydroxylated spirostanol saponins from the tubers of Dioscorea polygonoides” (J Nat Prod, 2005)

Columns and labels:
HSC-2 = experiment: Cytotoxicity against human HSC2 cells by MTT assay; assay type: functional, cell-based
HL-60 = experiment: Cytotoxicity against human HL60 cells by MTT assay; assay type: functional, cell-based

Compound | IC50 (HSC-2) [µM] | IC50 (HL-60) [µM]
C[C@H]1CO[C@@]2(O[C@H]3C[C@H]4[C@@H]5CC=C6C[C@@H](O[C@@H]7O[C@H](CO)[C@@H](O)[C@H](O)[C@H]7O[C@@H]7O[C@@H](C)[C@H](O)[C@@H](O)[C@H]7O)CC[C@]6(C)[C@H]5C[C@H](O)[C@]4(C)[C@@]3(O)[C@@H]2C)[C@@H](O)C1 | > 200 | > 200
C[C@H]1CO[C@@]2(O[C@H]3C[C@@]4(O)[C@@H]5CC=C6C[C@@H](O[C@@H]7O[C@H](CO)[C@@H](O)[C@H](O)[C@H]7O[C@@H]7O[C@@H](C)[C@H](O)[C@@H](O)[C@H]7O)CC[C@]6(C)[C@H]5CC[C@]4(C)[C@@]3(O)[C@@H]2C)[C@@H](O)C1 | > 200 | > 200
C[C@H]1CO[C@@]2(O[C@H]3C[C@H]4[C@@H]5CC=C6C[C@@H](O)CC[C@]6(C)[C@H]5C[C@H](O)[C@]4(C)[C@@]3(O)[C@@H]2C)[C@@H](O)C1 | > 200 | > 200
C[C@H]1CO[C@@]2(O[C@H]3C[C@@]4(O)[C@@H]5CC=C6C[C@@H](O)CC[C@]6(C)[C@H]5CC[C@]4(C)[C@@]3(O)[C@@H]2C)[C@@H](O)C1 | > 200 | > 200
C[C@@H]1O[C@@H](O[C@H]2[C@H](O[C@H]3CC[C@@]4(C)C(=CC[C@H]5[C@@H]6C[C@@H]7O[C@@]8(OC[C@H](C)[C@@H](O)[C@@H]8O)[C@@H](C)[C@@H]7[C@@]6(C)CC[C@@H]54)C3)O[C@H](CO)[C@@H](O)[C@@H]2O)[C@H](O)[C@H](O)[C@H]1O | > 200 | > 200
